According to US11167012B2, “Peptide inhibition of CCR3-mediated diseases or conditions” (The Board of Trustees of the University of Illinois, priority 2015, dated 2021):
“Also recorded” adds a separate entry of the source. Primed or numbered codes have the meaning given here. Where no end group is shown, it is not given here. PEG27′ = polyethylene glycol chain of 27 units

Columns and labels:
[1] = biological target: T1, CCR3 (Homo sapiens, UniProt P51677); test: CCR3 surface expression and internalization by flow cytometry, AML14.3D10-CCR3 cells; type: cell-based; design: host or cells: AML14.3D10-CCR3 (eosinophilic myelocytic cell line, kept under G418); conditions: for CCR3 internalization or surface accumulation on prolonged treatment: 1 μM for 24, 48 or 72 hour, with or without CCL11 (12 nM); for CCL11-induced receptor internalization: 1 μM, added concurrently with 12 nM CCL11
T1 sequence (P51677 1-355): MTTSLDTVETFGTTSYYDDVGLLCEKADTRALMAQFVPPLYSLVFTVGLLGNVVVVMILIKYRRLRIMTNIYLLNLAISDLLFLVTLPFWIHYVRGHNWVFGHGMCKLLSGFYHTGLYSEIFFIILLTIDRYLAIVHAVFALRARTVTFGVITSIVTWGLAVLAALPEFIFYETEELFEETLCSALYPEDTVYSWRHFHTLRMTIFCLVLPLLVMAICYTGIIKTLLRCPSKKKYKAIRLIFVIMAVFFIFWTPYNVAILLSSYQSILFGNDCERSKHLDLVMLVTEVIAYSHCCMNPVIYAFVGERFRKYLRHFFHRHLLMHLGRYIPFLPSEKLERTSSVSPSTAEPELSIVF
Description: Error bars represent SEM. *p<0.05, compared to untreated cells; n=3.
To assess surface expression of CCR3, cells were stained using PE-conjugated anti-human CCR3 antibody (clone 5E8, BioLegend) or PE-conjugated isotype-matched control after blocking with 10% human AB serum. To determine ligand-induced CCR3 internalization, cells were incubated with various chemokines for 1 hour at 37° C., washed once in staining buffer (PBS+0.5% BSA+0.1% NaN3) before being stained as above. After antibody staining, cells were fixed in 2% paraformaldehyde and analyzed on a QUANTA SC flow cytometer (Beckman Coulter, Indianapolis, Ind.).

[2] = system: ERK1/2 phosphorylation; test: Signal transduction assay, Western blotting of phospho-ERK1/2 in AML14.3D10-CCR3 cells; type: cell-based, human; conditions: 10 μM, CCL11-induced
Description: Phospho-ERK was detected using a specific antibody. The membrane was stripped and reprobed for total ERK1/2 as loading control. Immunoblots were quantified by densitometry using ImageJ. PD: PD184161, MEK inhibitor.
AML14.3D10-CCR3 cells were serum starved for 16 hours. Cells were pretreated with vehicle control, R3-2-1 or PD184161 for 30 minutes at 37° C., and subsequently stimulated with 8 nM CCL5 or CCL11 for 2 minutes. Stimulation was stopped by adding ice cold PBS. Cells were centrifuged and lysed in RIPA buffer containing protease and phosphatase inhibitors. Cell lysates were resolved on a 12% SDS-PAGE gel (10 μg/lane), transferred to PVDF membrane and blocked in 5% milk. Phospho-ERK1/2 was detected using rabbit monoclonal antibody (clone D13.14.4E, Cell Signaling Technology, Danvers, Mass.) and secondary goat anti-rabbit IgG-HRP (Santa Cruz Biotechnology, Dallas, Tex.). As a loading control, the membrane was subsequently stripped and re-probed with an antibody against total ERK1/2 (clone 127F5, Cell Signaling Technology).
Concurrent to ligand binding and activation, CCR3 undergoes ligand-induced desensitization and internalization (Zimmermann, et al. (1999) J. Biol. Chem. 274:12611-12618). As part of the desensitization process, CCR3 is degraded. This is thought to occur via β-arrestin recruitment to phosphorylated CCR3 and subsequent sequestration of the receptor into endosomal compartments, eventually leading to degradation. β-arrestin signaling is central in this process and is characterized by a late activation of signaling pathways such as MAPK/ERK1/2, in contrast to acute activation by G proteins. […] Therefore, the R3-2-1 peptide is a biased antagonist in that it inhibits the […] of CCL11 ligand-induced β-arrestin signaling, whereas the small molecule inhibitors are unbiased antagonists.

[3] = biological target: T1, CCR3; test: Chemotaxis assay (Transwell), AML14.3D10-CCR3 cells; type: cell-based; design: host or cells: AML14.3D10-CCR3 (eosinophilic myelocytic cell line, kept under G418); conditions: for tolerance to inhibition of CCL11-induced chemotaxis: 1 μM for 24, 48 or 72 hour, CCL11 12 nM; for inhibition of CCR3-mediated chemotaxis induced by Eotaxin/CCL11, RANTES/CCL5 and MEC/CCL28: AML14.3D10-CCR3 cells, R3-2-1 0.4, 2 or 10 μM
Description: AML14.3D10-CCR3 (ATCC, Manassas, Va.; Daugherty, et al. (1996) J. Exp. Med. 183:2349-2354) were maintained in RPMI-1640 supplemented with 10% FBS, 1.5 g/L sodium bicarbonate, 4.5 g/L glucose, 2 mM L-glutamine, 10 mM HEPES, 1 mM sodium pyruvate, 50 μM β-mercaptoethanol, and 2 mg/ml G418 in a humidified incubator with 5% CO2 at 37° C.
Cell migration was determined using a 96-well […]® system (Corning, Tewksbury, Mass.). […] The two chambers were separated by a polycarbonate filter with 5 μm pores. For AML14.3D10-CCR3 cells, 2×10^5 cells/well were resuspended in RPMI-1640+0.1% BSA and allowed to migrate for 4 hours at 37° C. For blood eosinophils, 1×10^5 cells/well were resuspended in X-VIVO 10+0.5% BSA and allowed to migrate for 3 hours at 37° C. Migrated cells were counted using a Beckman QUANTA SC flow cytometer. All experiments were performed in duplicate. Checkerboard analysis was done to distinguish chemotaxis from chemokinesis.
Primary eosinophils and the stable CCR3+eosinophilic myelocytic cell line, AML14.3D10-CCR3 (Daugherty, et al. (1996) J. Exp. Med. 183:2349-2354) undergo CCR3-mediated chemotaxis induced by multiple chemokines including eotaxin/CCL11, RANTES/CCL5, MCP-4/CCL13, and MEC/CCL28 (Daugherty, et al. (1996) J. Exp. Med. 183:2349-2354; Pan, et al. (2000) J. Immunol. 165:2943-2949).

[4] = system: eosinophil recruitment into the esophageal epithelium; test: Mouse model of EoE, oxazalone-challenged L2-IL5 transgenic mice; type: in vivo; conditions: i.v., 24 hours after last OXA challenge
Description: Skin sensitized L2-IL5 transgenic mice received topical esophageal oxazalone (OXA) challenges by gavage (i.e.) on days 5, 8 and 12 (FIG. 5A). R3-2-1 peptide nanoparticles, control peptide (R3-2-3) or CCR3 inhibitor UCB35625 (UCB) were given immediately before on days 5, 8, 10 and 12 (FIG. 5A). Esophageal eosinophilia was assessed 24 hours after the last OXA challenge and treatment (day 13). […] Error bars represent SEM.
Mice were treated i.v. with R3-2-1 peptide, scrambled R3-2-3 control peptide ([…]-PEG27-NH2; SEQ ID NO:24), or the allosteric non-selective CCR3 inhibitor, UCB35625. Eosinophil recruitment into the esophageal epithelium was assessed 24 hours after the last OXA challenge by counting eosinophils in 9 high power fields (hpf) covering the total esophagus or 3 hpf covering the distal esophagus.

[5] = biological target: T1, CCR3; test: Eotaxin-induced chemotaxis of 4DE4-CCR3 cells; type: cell-based; design: expressed in transfected cells; host or cells: 4DE4 mouse pre-B cell lymphoma line; conditions: 80 nM eotaxin, 4 hours
Description: Cells were pretreated with, and then allowed to migrate towards, 80 nM eotaxin in the presence of the various CCR3 transmembrane peptides for 4 hours. Data are from three independent experiments. Error bars represent SEM.
To determine the effects of these peptides on CCR3-mediated chemotaxis, 4DE4-CCR3 cells were allowed to migrate to eotaxin/CCL11 in the presence of each peptide. 4DE4-CCR3, a mouse pre-B cell lymphoma line engineered to stably express human CCR3, has been used extensively to study CCR3 expression and CCR3-mediated chemotaxis.

[6] = system: 4DE4-CCR3 cells; test: Cytotoxicity in 4DE4-CCR3 cells; type: cell-based, mouse; conditions: concentrations tested in chemotaxis assay
[7] = biological target: T1, CCR3; test: Chemotaxis assay (Transwell), blood eosinophils; type: cell-based; design: host or cells: AML14.3D10-CCR3 (eosinophilic myelocytic cell line, kept under G418); conditions: scramble peptide control
Source text: Blood eosinophils were purified from anti-coagulated blood drawn from mild allergic asthmatic subjects. Peripheral blood was subjected to density gradient centrifugation over FICOLL-PAQUE® Plus (GE Healthcare, Pittsburgh, Pa.) media to obtain a pellet containing erythrocytes and granulocytes. After erythrocyte lysis via hypotonic shock, eosinophils were purified by negative selection using a cocktail of antibody-conjugated magnetic beads against non-eosinophils (Miltenyi Biotec, Auburn, Calif.). The eosinophils were resuspended in X-VIVO 10 without phenol red. The purity and viability of the eosinophils obtained was routinely >97% as assessed by Hema III and trypan blue staining, respectively.
Cell migration was determined using a 96-well TRANSWELL® system (Corning, Tewksbury, Mass.). Briefly, 200 μl chemoattractant or control medium was added to the lower chamber while 100 μl cells were added to the upper chamber. The two chambers were separated by a polycarbonate filter with 5 μm pores. For AML14.3D10-CCR3 cells, 2×10^5 cells/well were resuspended in RPMI-1640+0.1% BSA and allowed to migrate for 4 hours at 37° C. […] Migrated cells were counted using a Beckman QUANTA SC flow cytometer. All experiments were performed in duplicate. Checkerboard analysis was done to distinguish chemotaxis from chemokinesis.
Primary eosinophils and the stable CCR3+eosinophilic myelocytic cell line, AML14.3D10-CCR3 (Daugherty, et al. (1996) J. Exp. Med. 183:2349-2354) undergo CCR3-mediated chemotaxis induced by multiple chemokines including eotaxin/CCL11, RANTES/CCL5, MCP-4/CCL13, and MEC/CCL28 (Daugherty, et al. (1996) J. Exp. Med. 183:2349-2354; Pan, et al. (2000) J. Immunol. 165:2943-2949). […] In addition, R3-2-1 inhibits chemotaxis of both AML14.3D10-CCR3 and blood eosinophils induced by CCL11/Eotaxin-1, CCL24/Eotaxin-2, and CCL26/Eotaxin-3 in a dose-dependent fashion (Table 3).

| Molecule | CCL11-induced receptor internalization [1] | acute (2-5 minutes) and late (30 minutes) phase phosphorylation of ERK1/2 [2] | cytotoxicity [6] | further results |
| --- | --- | --- | --- | --- |
| COC(=O)[C@H](Cc1ccc([N+](=O)[O-])cc1)NC(=O)c1cccc2ccccc12 [SB328437, N-(1-Naphthalenylcarbonyl)-4-nitro-L-phenylalanine methyl ester, reference compound] | significantly inhibit chemokine-induced CCR3 internalization | inhibits both acute and late phase phosphorylation |  | CCR3 internalization or surface accumulation on prolonged treatment [1]: surface accumulation; tolerance to inhibition of CCL11-induced chemotaxis [3]: slowly lose their ability to antagonize CCL11-induced chemotaxis; inhibition of CCR3-mediated chemotaxis induced by Eotaxin/CCL11, RANTES/CCL5 and MEC/CCL28 [3]: only inhibits CCL11-induced but not CCL5- or CCL28-induced chemotaxis |
| CC[N+]1(C/C2=C/CCCCCC2)CCC(NC(=O)C2c3cc(Cl)ccc3Oc3ccc(Cl)cc32)CC1.[I-] (stereo not drawn) [UCB35625, 1,4-trans-1-(1-Cycloocten-1-ylmethyl)-4-[[(2,7-dichloro-9H-xanthen-9-yl)carbonyl]amino]-1-ethylpiperidinium iodide, reference compound] | significantly inhibit chemokine-induced CCR3 internalization | inhibits the late phase to a higher degree than the early phase phosphorylation |  | eosinophil recruitment into distal and total esophageal epithelium [4]: had no effect; also recorded: ineffective in reducing eosinophil recruitment; CCR3 internalization or surface accumulation on prolonged treatment [1]: surface accumulation; tolerance to inhibition of CCL11-induced chemotaxis [3]: slowly lose their ability to antagonize CCL11-induced chemotaxis; inhibition of CCR3-mediated chemotaxis induced by Eotaxin/CCL11, RANTES/CCL5 and MEC/CCL28 [3]: potent inhibitor of chemotaxis induced by multiple CCR3 agonists in vitro |
| Ac-KDDDLLSGFYHTGLYSEIFFIILLTI [TM3] |  |  |  | inhibition of eotaxin-induced chemotaxis of 4DE4-CCR3 cells [5]: no significant CCR3 antagonism |
| Ac-KDDDQFVPPLYSLVFTVGLLGNVVVVMILI [TM1] |  |  | moderately cytotoxic |  |
| Ac-VTFGVITSIVTWGLAVLAALPEFIFDDDK [TM4] |  |  |  | inhibition of eotaxin-induced chemotaxis of 4DE4-CCR3 cells [5]: no significant CCR3 antagonism |
| CDDDTIFCLVLPLLVMAICYTGII [TM5] |  |  | highly cytotoxic |  |
| CDDDVMLVTEVIAYSHCCMNPVIYAFV [TM7] |  |  | highly cytotoxic |  |
| LIFVIMAVFFIFWTPYNVAILDDDC [TM6] |  |  | highly cytotoxic |  |
| LLNLAISDLLFLVTLPFWIHYDDDC [TM2] |  |  | undetectable or low cytotoxicity |  |
| YLFLLVTVFHIWLPHNRGHVWGFDDD-PEG27-NH2 (YLFLLVTVFHIWLPHNRGHVWGFDDD-{PEG27′-NH2}) [Peptide R3-2-3, reference compound] | neither R3-2-1 (1 μM) nor R3-2-3 (1 μM) interfere with CCL11-induced receptor internalization | does not inhibit either acute or late phase phosphorylation |  | CCL11-, CCL24-, or CCL26-induced chemotaxis of blood eosinophils [7]: did not inhibit |
